The results in this text go back to US20250051347A1, “BIFUNCTIONAL CHIMERIC HETEROCYCLIC COMPOUND AND USE THEREOF AS ANDROGEN RECEPTOR DEGRADER” (Hinova Pharmaceuticals, Inc., priority 2021, published 2025).

Where two headings read alike, the source gives them in different places.

The target of data set [1] is T1, androgen receptor (AR) splicing variant AR-v7 (Homo sapiens, UniProt P10275).
T1 construct: The degradation activity of compounds on AR-v7 in 22RV1 cells; host or cells: 22RV1 cells
T1 sequence (P10275 1-644 isoform P10275-3): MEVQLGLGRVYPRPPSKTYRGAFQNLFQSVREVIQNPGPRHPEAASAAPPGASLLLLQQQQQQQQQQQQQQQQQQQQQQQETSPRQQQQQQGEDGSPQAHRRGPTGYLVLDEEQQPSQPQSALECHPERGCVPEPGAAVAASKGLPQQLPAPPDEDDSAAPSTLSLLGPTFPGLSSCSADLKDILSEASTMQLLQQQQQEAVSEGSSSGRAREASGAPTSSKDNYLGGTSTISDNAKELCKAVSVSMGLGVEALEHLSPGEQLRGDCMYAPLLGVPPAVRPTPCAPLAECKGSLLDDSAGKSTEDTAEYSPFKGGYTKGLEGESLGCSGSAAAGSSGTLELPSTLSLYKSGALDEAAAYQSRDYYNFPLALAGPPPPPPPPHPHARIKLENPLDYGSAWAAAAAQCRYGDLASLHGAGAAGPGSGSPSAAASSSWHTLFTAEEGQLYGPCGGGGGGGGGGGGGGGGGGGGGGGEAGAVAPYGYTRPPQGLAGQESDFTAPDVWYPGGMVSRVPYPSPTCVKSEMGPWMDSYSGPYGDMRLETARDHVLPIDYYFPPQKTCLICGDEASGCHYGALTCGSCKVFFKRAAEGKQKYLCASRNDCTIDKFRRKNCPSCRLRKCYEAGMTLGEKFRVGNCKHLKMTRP
The data set is described as follows: Degradation activity on androgen receptor splicing variant AR-v7 in 22RV1 cells (ELISA). It is filed as cell-based. To be noted: AR-v7 degradation in 22RV1 cells, 48 h, class symbols.

The nature of data set [2]: Pharmacokinetics in mice (plasma exposure after oral administration). To be noted: mouse, ICR mice, oral (i.g.) 3 mg/kg, read-out: After oral administration of 3 mg/kg, mouse plasma exposure AUCinf. It is filed as in vivo. The method, then: • LC-20AD high performance liquid chromatography (SHIMADZU, Japan) • API4000 triple quadrupole mass spectrometer (Applied Biosystem, USA) • Phenix Winnolin Pharmacokinetic software (Version 6.3, Certara, USA) • High speed freezing centrifuge (Thermo Fisher Scientific) • Analytical balance (Sartorius, SECURA225D-ICN) • ICR mice (Chengdu Dossy Experimental Animals CO., LTD.)
A suitable amount of drug was accurately weighed, and then the medium (5% DMSO, 15% HS-15, 80% DSW) was added to prepare the solution at a concentration of 0.1 mg/ml (i.v.) and 0.3 mg/ml (i.g.).
18 healthy adult ICR mice were divided into two groups (9 mice for i.v. group; 9 mice for i.g. group), and administered by tail vein or by gavage after fasting overnight (free drinking water); using the satellite blood collection method, 3 animals were collected at each time point, and then 0.1 ml of blood obtained at different time points was anticoagulated with EDTA-K2, centrifuged at 4° C. for 5 min to separate the plasma, and stored at −80° C. for detection. The sampling time points after i.v. administration were 5 min, 15 min, 0.5 h, 1 h, 2 h, 4 h, 8 h, 12 h, and 24 h; while the sampling time points for i.g. group were before administration (0 h) as well as 0.5 h, 1 h, 2 h, 4 h, 6 h, 8 h, 12 h, and 24 h after administration. Then, the drug concentration in plasma was determined by LC/MS/MS.

The test system of the next data set is 22RV1 cells. To be noted: Homo sapiens, 22Rv1, 144 h.
Setting [3] is: read-out: 22RV1 IC50 (nM), 22RV1 cells, 6 days culture, CCK-8, OD 450 nm.

`CC(C)(c1ccc(OCc2ccnc(N3CC4(CNC4)C3)n2)cc1)c1ccc(O[C@H]2C[C@H](Nc3ccc4c(c3)C(=O)N(C3CCC(=O)NC3=O)C4=O)C2)cc1` (stereo partly shown) [Example 82, 5-(((1r,3r)-3-(4-(2-(4-((2-(2,6-diazaspiro[3.3]heptan-2-yl)pyrimidin-4-yl)methoxy)phenyl)propan-2-yl)phenoxy)cyclobutyl)amino)-2-(2,6-dioxopiperidin-3-yl)isoindolin-1,3-dione] yielded a DC50 in data set [1] of 11 to 100 nM. Moreover, the AUC(0-inf) in data set [2] fell in the range of 100 to 1000 ng·h/mL. On to `CC(C)(c1ccc(OCc2ccnc(NCC3CNC3)n2)cc1)c1ccc(O[C@H]2C[C@@H](Nc3ccc4c(c3)C(=O)N(C3CCC(=O)NC3=O)C4=O)C2)cc1` (stereo partly shown) [Example 406], for which the AUC(0-inf) in data set [2] lay in the range of 100 to 1000 ng·h/mL. Regarding `CC(=O)c1ccc(Oc2ccc(C(C)(C)c3ccc(O[C@H]4C[C@@H](Nc5ccc6c(c5)C(=O)N(C5CCC(=O)NC5=O)C6=O)C4)cc3)cc2)nn1` (stereo partly shown) [Example 523], the IC50 in the data set with 22RV1 cells (setting [3]) was 6 nM. Besides, in data set [1], the DC50 was < 10 nM. As for `CC(=O)c1ccc(Oc2ccc(C(C)(C)c3ccc(O[C@H]4C[C@@H](Nc5ccc6c(c5)C(=O)N(C5CCC(=O)NC5=O)C6=O)C4)cc3)cc2)cn1` (stereo partly shown) [Example 525], in the data set with 22RV1 cells (setting [3]), the IC50 was 8 nM. Further, the 50% degradation concentration (DC50) in data set [1] lay in the range of 11 to 100 nM. As to `CCC(CC)(c1ccc(Oc2ccc(-c3noc(C)n3)nn2)cc1)c1ccc(O[C@H]2C[C@@H](Nc3ccc4c(c3)C(=O)N(C3CCC(=O)NC3=O)C4=O)C2)cc1` (stereo partly shown) [Example 526], the IC50 in the data set on 22RV1 cells (read-out: 22RV1 IC50 (nM)) turned out to be 5 nM. Also, the DC50 in data set [1] was < 10 nM. With `CCC(CC)(c1ccc(Oc2ccc(-c3noc(C)n3)nn2)cc1)c1ccc(O[C@H]2C[C@H](Nc3ccc4c(c3)C(=O)N(C3CCC(=O)NC3=O)C4=O)C2)cc1` (stereo partly shown) [Example 527], the IC50 with 22RV1 cells (setting [3]) is 3 nM. Further, in data set [1], the DC50 was < 10 nM. Turning to `CC(=O)c1ncc(Oc2ccc(C3(c4ccc(O[C@H]5C[C@H](Nc6ccc7c(c6)C(=O)N(C6CCC(=O)NC6=O)C7=O)C5)cc4)CCCCC3)cc2)cn1` (stereo partly shown) [Example 529], the concentration for half-maximal inhibition (IC50) in the data set on 22RV1 cells (setting [3]) turned out to be 2 nM. In data set [1], the DC50 was < 10 nM. Take `CC(C)(c1ccc(OCc2cnc(N3CC4(COC4)C3)nc2)cc1)c1ccc(O[C@H]2C[C@H](Nc3ccc4c(c3)C(=O)N(C3CCC(=O)NC3=O)C4=O)C2)cc1` (stereo partly shown) [Example 535]: the 50% inhibitory concentration (IC50) with 22RV1 cells (setting [3]) was determined as 35 nM. Also, the DC50 in data set [1] was in the range of 11 to 100 nM. Turning to `Cc1cncc(Oc2ccc(C(C)(C)c3ccc(O[C@H]4C[C@H](Nc5ccc6c(c5)C(=O)N(C5CCC(=O)NC5=O)C6=O)C4)cc3)cc2)n1` (stereo partly shown) [Example 536, 2-(2,6-dioxopiperidin-3-yl)-5-(((1r,3r)-3-(4-(4-((6-methylpyrazin-2-yl)oxy)phenyl)propan-2-yl)phenoxy)amino)isoindolin-1,3-dione], the IC50 with 22RV1 cells (setting [3]) worked out at 5 nM. Further, the DC50 in data set [1] was < 10 nM. For `CC(C)(c1ccc(OCc2cncc(N3CC4(COC4)C3)n2)cc1)c1ccc(O[C@H]2C[C@H](Nc3ccc4c(c3)C(=O)N(C3CCC(=O)NC3=O)C4=O)C2)cc1` (stereo partly shown) [Example 539], the IC50 in the data set on 22RV1 cells (setting [3]) amounted to 8 nM. The DC50 in data set [1] is < 10 nM. For `CC(C)(c1ccc(Oc2cccnc2)cc1)c1ccc(O[C@H]2C[C@H](Nc3ccc4c(c3)C(=O)N(C3CCC(=O)NC3=O)C4=O)C2)cc1` (stereo partly shown) [Example 547] the same measures were 9 nM and < 10 nM.

For the molecule `CC(C)(O)c1ncc(Oc2ccc(C(C)(C)c3ccc(O[C@H]4C[C@H](Nc5ccc6c(c5)C(=O)N(C5CCC(=O)NC5=O)C6=O)C4)cc3)cc2)cn1` (stereo partly shown) [Example 548], the IC50 with 22RV1 cells (setting [3]) was 8 nM. The DC50 in data set [1] is < 10 nM.

`CC(C)(c1ccc(Oc2cnc(CO)nc2)cc1)c1ccc(O[C@H]2C[C@H](Nc3ccc4c(c3)C(=O)N(C3CCC(=O)NC3=O)C4=O)C2)cc1` (stereo partly shown) [Example 549]: the IC50 with 22RV1 cells (setting [3]) was 7 nM. Also, the DC50 in data set [1] is < 10 nM. For the molecule `CNc1cnc(Oc2ccc(C(C)(C)c3ccc(O[C@H]4C[C@H](Nc5ccc6c(c5)C(=O)N(C5CCC(=O)NC5=O)C6=O)C4)cc3)cc2)cn1` (stereo partly shown) [Example 551], the IC50 in the data set on 22RV1 cells (setting [3]) is 12 nM. In addition, the half-maximal degradation concentration (DC50) in data set [1] fell in the range of 11 to 100 nM. For `CC(C)(c1ccc(OCc2ccnc(N3CC4(COC4)C3)n2)cc1)c1ccc(OCC2(Nc3ccc4c(c3)C(=O)N(C3CCC(=O)NC3=O)C4=O)CC2)cc1` (stereo not shown) [Example 564, 5-((1-((4-(2-(4-((2-(2-oxa-6-azaspiro[3.3]heptan-6-yl)pyrimidin-4-yl)methoxy)phenyl)propan-2-yl)phenoxy)methyl)cyclopropyl)amino)-2-(2,6-dioxopiperidin-3-yl)isoindolin-1,3-dione] the same measures were 40 nM and 11 to 100 nM.

Regarding `CC(C)(c1ccc(Oc2cc(N3CC4(COC4)C3)ncn2)cc1)c1ccc(O[C@H]2C[C@@H](Nc3ccc4c(c3)C(=O)N(C3CCC(=O)NC3=O)C4=O)C2)cc1` (stereo partly shown) [Example 571], the IC50 in the data set with 22RV1 cells (setting [3]) came to 5 nM. Further, in data set [1], the DC50 is < 10 nM.

`CC(C)(c1ccc(Oc2ncnc(N3CC4(COC4)C3)c2F)cc1)c1ccc(O[C@H]2C[C@H](Nc3ccc4c(c3)C(=O)N(C3CCC(=O)NC3=O)C4=O)C2)cc1` (stereo partly shown) [Example 572]: the IC50 with 22RV1 cells (setting [3]) was 16 nM. Further, the DC50 in data set [1] was < 10 nM.

In the case of `CC(C)(c1ccc(Oc2ncnc(N3CC4(COC4)C3)c2F)cc1)c1ccc(O[C@H]2C[C@@H](Nc3ccc4c(c3)C(=O)N(C3CCC(=O)NC3=O)C4=O)C2)cc1` (stereo partly shown) [Example 574], the IC50 in the data set on 22RV1 cells (setting [3]) was determined as 5 nM. Also, the DC50 in data set [1] is < 10 nM. For `CC(C)(c1ccc(Oc2cc(-n3nccn3)ncn2)cc1)c1ccc(O[C@H]2C[C@H](Nc3ccc4c(c3)C(=O)N(C3CCC(=O)NC3=O)C4=O)C2)cc1` (stereo partly shown) [Example 578], in that order: 8 nM and < 10 nM. Turning to `CC(C)(c1ccc(Oc2cncc(-n3nccn3)n2)cc1)c1ccc(O[C@H]2C[C@H](Nc3ccc4c(c3)C(=O)N(C3CCC(=O)NC3=O)C4=O)C2)cc1` (stereo partly shown) [Example 579], in the data set on 22RV1 cells (setting [3]), the IC50 was found to be 7 nM. Besides, the DC50 in data set [1] was < 10 nM. Take `CC(C)(c1ccc(Oc2cncc(-n3ccnn3)n2)cc1)c1ccc(O[C@H]2C[C@H](Nc3ccc4c(c3)C(=O)N(C3CCC(=O)NC3=O)C4=O)C2)cc1` (stereo partly shown) [Example 580]: in the data set with 22RV1 cells (setting [3]), the 50% inhibitory concentration (IC50) was found to be 14 nM. In data set [1], the DC50 was < 10 nM. For `Cc1nc(-c2ccc(Oc3ccc(C(C)(C)c4ccc(O[C@H]5C[C@H](Nc6ccc7c(c6)C(=O)N(C6CCC(=O)NC6=O)C7=O)C5)cc4)cc3)cn2)no1` (stereo partly shown) [Example 581] the same measures were 10 nM and < 10 nM.

Regarding `CC(C)(c1ccc(Oc2cnc(-n3nccn3)cn2)cc1)c1ccc(O[C@H]2C[C@H](Nc3ccc4c(c3)C(=O)N(C3CCC(=O)NC3=O)C4=O)C2)cc1` (stereo partly shown) [Example 583], the IC50 in the data set on 22RV1 cells (setting [3]) stood at 10 nM. Moreover, the DC50 in data set [1] was in the range of 11 to 100 nM. For `Cc1nnc(-c2cnc(Oc3ccc(C(C)(C)c4ccc(O[C@H]5C[C@H](Nc6ccc7c(c6)C(=O)N(C6CCC(=O)NC6=O)C7=O)C5)cc4)cc3)cn2)o1` (stereo partly shown) [Example 589] the same measures were 7 nM and < 10 nM. Regarding `CC(C)(c1ccc(Oc2nncs2)cc1)c1ccc(O[C@H]2C[C@H](Nc3ccc4c(c3)C(=O)N(C3CCC(=O)NC3=O)C4=O)C2)cc1` (stereo partly shown) [Example 592], the IC50 in the data set on 22RV1 cells (setting [3]) is 8 nM. Besides, the DC50 in data set [1] is < 10 nM. On to `CC(O)c1cnc(Oc2ccc(C(C)(C)c3ccc(O[C@H]4C[C@H](Nc5ccc6c(c5)C(=O)N(C5CCC(=O)NC5=O)C6=O)C4)cc3)cc2)cn1` (stereo partly shown) [Example 595], for which, in the data set with 22RV1 cells (setting [3]), the IC50 was 4 nM. Further, the 50% degradation concentration (DC50) in data set [1] is < 10 nM.

In the case of `CC(=O)c1cnc(Oc2ccc(C(C)(C)c3ccc(O[C@H]4C[C@H](Nc5ccc6c(c5)C(=O)N(C5CCC(=O)NC5=O)C6=O)C4)cc3)cc2)cn1` (stereo partly shown) [Example 596], the IC50 in the data set with 22RV1 cells (setting [3]) stood at 10 nM. Further, the DC50 in data set [1] was < 10 nM. For the molecule `Cc1nc(-c2cnc(Oc3ccc(C4(c5ccc(O[C@H]6C[C@H](Nc7ccc8c(c7)C(=O)N(C7CCC(=O)NC7=O)C8=O)C6)cc5)CCCC4)cc3)cn2)no1` (stereo partly shown) [Example 601], the IC50 with 22RV1 cells (setting [3]) is 11 nM. In addition, the DC50 in data set [1] is < 10 nM.
